# Measured values reported in patent US20040127403A1, “Methods for treating and preventing Gram-positive bacteremias” (priority 2002, published 2004).
# How the values were obtained:
# Experiment in all cases: MIC, NCCLS broth microdilution
# Type in all cases: cell-based
# S. epidermidis ATCC18972 = settings: Staphylococcus epidermidis, ATCC18972, S. epidermidis ATCC18972
# S. epidermidis ATCC35984 = settings: Staphylococcus epidermidis, ATCC35984, S. epidermidis ATCC35984
# S. aureus ATCC27660 MSSA = settings: Staphylococcus aureus
# Experimental: (§1) The efficacy of ramoplanin was tested against recently isolated VRE that are resistant to linezolid and quinupristin/dalfopristin. The culture media containing ramoplanin was supplemented with 0.02% bovine serum albumin (BSA) to prevent ramoplanin binding to the plastic. MIC values were determined in both cation-adjusted Mueller-Hinton broth (CAMHB) and trypticase soy broth (TSB) by the National Committee for Clinical Laboratory Standards (NCCLS) broth microdilution method. Macromolecular biosynthesis experiments were done by following the incorporation of carbon-14-labeled N-acetylglucosamine, acetic acid, amino acids, uridine, and thymidine into peptidoglycan, fatty acid, protein, RNA and DNA, respectively.
# S. aureus ATCC12600 MRSA = settings: Staphylococcus aureus
# Experimental: as §1
# S. aureus ATCC19636 MSSA = settings: Staphylococcus aureus
# Experimental: as §1
# E. faecalis ATCC29212 = settings: Enterococcus faecalis, ATCC29212, E. faecalis ATCC29212
# Experimental: as §1
# E. faecium A6350 Line-R = settings: Enterococcus faecium, A6350LINER
# Experimental: as §1
# E. faecium UA392 = settings: Enterococcus faecium, UA392, E. faecium UA392
# Experimental: as §1
# E. faecalis ATCC51299 = settings: Enterococcus faecalis, ATCC51299, E. faecalis ATCC51299
# Experimental: as §1
# E. faecium A-5960 Line-R = settings: Enterococcus faecium, A5960LINER
# Experimental: as §1
# E. faecium ATCC700221 = settings: Enterococcus faecium, ATCC700221, E. faecium ATCC700221
# Experimental: as §1
# E. gallinarum UA604 = settings: Enterococcus gallinarum, GALLINARUM
# Experimental: as §1
# E. faecium A4192 Syn-R = settings: Enterococcus faecium, A4192SYNR
# Experimental: as §1
# E. faecium UA210 = settings: Enterococcus faecium, UA210, E. faecium UA210
# Experimental: as §1
# S. aureus ATCC35556 MRSA = settings: Staphylococcus aureus
# Experimental: as §1
# E. faecium A5959 Line-R = settings: Enterococcus faecium, A5959LINER
# Experimental: as §1
# S. epidermidis ATCC12228 = settings: Staphylococcus epidermidis, ATCC12228, S. epidermidis ATCC12228
# Experimental: as §1
# E. faecalis A7789 Line-R = settings: Enterococcus faecalis, A7789LINER
# Experimental: as §1
# E. faecium 1836 = settings: Enterococcus faecium, 1836, E. faecium 1836
# Experimental: as §1
# E. faecium A6345 Line-R = settings: for MIC: Enterococcus faecium, A6345LINER, E. faecium A6345 Line-R
# Experimental: as §1
# [1] = tested on: S. aureus ATCC700699 MRSA/VISA
# Experimental: as §1
# S. aureus ATCC43300 MRSA = tested on: S. aureus ATCC43300 MRSA
# Experimental: as §1
# S. epidermidis ATCC35983 = settings: Staphylococcus epidermidis, ATCC35983, S. epidermidis ATCC35983
# Experimental: as §1
smiles,measurement,setting,value
CN[C@H](CC(C)C)C(=O)N[C@H]1C(=O)N[C@@H](CC(N)=O)C(=O)N[C@H]2C(=O)N[C@H]3C(=O)N[C@H](C(=O)N[C@H](C(=O)O)c4cc(O)cc(O)c4-c4cc3ccc4O)[C@H](O)c3ccc(c(Cl)c3)Oc3cc2cc(c3O[C@@H]2O[C@H](CO)[C@@H](O)[C@H](O)[C@H]2O[C@H]2C[C@](C)(N)[C@H](O)[C@H](C)O2)Oc2ccc(cc2Cl)[C@H]1O [Vancomycin],MIC,S. epidermidis ATCC18972; CAMHB,4 µg/mL
same,MIC,S. epidermidis ATCC18972; TSB,4 µg/mL
same,MIC,"S. epidermidis ATCC18972; Table 6, 1st",2 µg/mL
same,MIC,"S. epidermidis ATCC18972; Table 6, 2nd",2 µg/mL
same,MIC,S. epidermidis ATCC35984; CAMHB,4 µg/mL
same,MIC,S. epidermidis ATCC35984; TSB,4 µg/mL
same,MIC,"S. epidermidis ATCC35984; Table 6, 1st",2 µg/mL
same,MIC,"S. epidermidis ATCC35984; Table 6, 2nd",2 µg/mL
same,MIC,S. aureus ATCC27660 MSSA; CAMHB,2 µg/mL
same,MIC,S. aureus ATCC27660 MSSA; TSB,2 µg/mL
same,MIC,"S. aureus ATCC27660 MSSA; Table 6, 1st",1 µg/mL
same,MIC,"S. aureus ATCC27660 MSSA; Table 6, 2nd",1 µg/mL
same,MIC,S. aureus ATCC12600 MRSA; CAMHB,2 µg/mL
same,MIC,S. aureus ATCC12600 MRSA; TSB,2 µg/mL
same,MIC,"S. aureus ATCC12600 MRSA; Table 6, 1st",1 µg/mL
same,MIC,"S. aureus ATCC12600 MRSA; Table 6, 2nd",1 µg/mL
same,MIC,S. aureus ATCC19636 MSSA; CAMHB,2 µg/mL
same,MIC,S. aureus ATCC19636 MSSA; TSB,> 16 µg/mL
same,MIC,"S. aureus ATCC19636 MSSA; Table 6, 1st",1 µg/mL
same,MIC,"S. aureus ATCC19636 MSSA; Table 6, 2nd",1 µg/mL
same,MIC,E. faecalis ATCC29212; CAMHB,4 µg/mL
same,MIC,"E. faecalis ATCC29212; Table 6, 1st",2 µg/mL
same,MIC,"E. faecalis ATCC29212; Table 6, 2nd",2 µg/mL
same,MIC,E. faecium A6350 Line-R; CAMHB,2 µg/mL
same,MIC,E. faecium A6350 Line-R; TSB,2 µg/mL
same,MIC,"E. faecium A6350 Line-R; Table 6, 1st",1 µg/mL
same,MIC,"E. faecium A6350 Line-R; Table 6, 2nd",1 µg/mL
same,MIC,E. faecium UA392; CAMHB,1 µg/mL
same,MIC,E. faecium UA392; TSB,2 µg/mL
same,MIC,"E. faecium UA392; Table 6, 1st",2 µg/mL
same,MIC,"E. faecium UA392; Table 6, 2nd",2 µg/mL
same,MIC,E. faecalis ATCC51299; CAMHB,> 16 µg/mL
same,MIC,E. faecalis ATCC51299; TSB,> 16 µg/mL
same,MIC,"E. faecalis ATCC51299; Table 6, 1st",> 16 µg/mL
same,MIC,"E. faecalis ATCC51299; Table 6, 2nd",32 µg/mL
same,MIC,E. faecium A-5960 Line-R; CAMHB,> 16 µg/mL
same,MIC,E. faecium A-5960 Line-R; TSB,> 16 µg/mL
same,MIC,"E. faecium A-5960 Line-R; Table 6, 1st",> 16 µg/mL
same,MIC,"E. faecium A-5960 Line-R; Table 6, 2nd",> 64 µg/mL
same,MIC,E. faecium ATCC700221; CAMHB,> 16 µg/mL
same,MIC,E. faecium ATCC700221; TSB,> 16 µg/mL
same,MIC,"E. faecium ATCC700221; Table 6, 1st",> 16 µg/mL
same,MIC,"E. faecium ATCC700221; Table 6, 2nd",> 64 µg/mL
same,MIC,E. gallinarum UA604; CAMHB,1 µg/mL
same,MIC,E. gallinarum UA604; TSB,2 µg/mL
same,MIC,"E. gallinarum UA604; Table 6, 1st",0.5 µg/mL
same,MIC,"E. gallinarum UA604; Table 6, 2nd",0.5 µg/mL
same,MIC,E. faecium A4192 Syn-R; CAMHB,> 16 µg/mL
same,MIC,E. faecium A4192 Syn-R; TSB,> 16 µg/mL
same,MIC,"E. faecium A4192 Syn-R; Table 6, 1st",> 16 µg/mL
same,MIC,"E. faecium A4192 Syn-R; Table 6, 2nd",> 64 µg/mL
same,MIC,E. faecium UA210; CAMHB,> 16 µg/mL
same,MIC,E. faecium UA210; TSB,> 16 µg/mL
same,MIC,"E. faecium UA210; Table 6, 1st",> 16 µg/mL
same,MIC,"E. faecium UA210; Table 6, 2nd",> 64 µg/mL
same,MIC,S. aureus ATCC35556 MRSA; CAMHB,1 µg/mL
same,MIC,S. aureus ATCC35556 MRSA; TSB,> 16 µg/mL
same,MIC,"S. aureus ATCC35556 MRSA; Table 6, 1st",1 µg/mL
same,MIC,"S. aureus ATCC35556 MRSA; Table 6, 2nd",1 µg/mL
same,MIC,E. faecium A5959 Line-R; CAMHB,> 16 µg/mL
same,MIC,E. faecium A5959 Line-R; TSB,> 16 µg/mL
same,MIC,"E. faecium A5959 Line-R; Table 6, 1st",> 16 µg/mL
same,MIC,"E. faecium A5959 Line-R; Table 6, 2nd",> 64 µg/mL
same,MIC,S. epidermidis ATCC12228; CAMHB,4 µg/mL
same,MIC,S. epidermidis ATCC12228; TSB,4 µg/mL
same,MIC,"S. epidermidis ATCC12228; Table 6, 1st",2 µg/mL
same,MIC,"S. epidermidis ATCC12228; Table 6, 2nd",2 µg/mL
same,MIC,E. faecalis A7789 Line-R; CAMHB,2 µg/mL
same,MIC,E. faecalis A7789 Line-R; TSB,2 µg/mL
same,MIC,"E. faecalis A7789 Line-R; Table 6, 1st",1 µg/mL
same,MIC,"E. faecalis A7789 Line-R; Table 6, 2nd",1 µg/mL
same,MIC,E. faecium 1836; CAMHB,> 16 µg/mL
same,MIC,E. faecium 1836; TSB,> 16 µg/mL
same,MIC,"E. faecium 1836; Table 6, 1st",> 16 µg/mL
same,MIC,"E. faecium 1836; Table 6, 2nd",> 64 µg/mL
same,reference MIC for strains used for killing curve,"E. faecium A6345 Line-R; E. faecium A6345 Line-R. as printed, second row of Table 3",>64 µg/mL
same,reference MIC for strains used for killing curve,"E. faecium A6345 Line-R; E. faecium A6345 Line-R., first row of Table 3",>64 µg/mL
same,MIC,E. faecium A6345 Line-R; CAMHB,> 16 µg/mL
same,MIC,E. faecium A6345 Line-R; TSB,> 16 µg/mL
same,MIC,"E. faecium A6345 Line-R; Table 6, 1st",> 16 µg/mL
same,MIC,"E. faecium A6345 Line-R; Table 6, 2nd",> 64 µg/mL
same,MIC,"[1]; S. aureus ATCC700699 MRSA/VISA, TSB","2, 2 μg/ml"
same,MIC,"[1]; S. aureus ATCC700699 MRSA/VISA, Table 6, 1st",2 µg/mL
same,MIC,"[1]; S. aureus ATCC700699 MRSA/VISA, Table 6, 2nd",2 µg/mL
same,MIC,[1]; Staphylococcus aureus,2 µg/mL
same,MIC,"S. aureus ATCC43300 MRSA; S. aureus ATCC43300 MRSA/VISA, Table 6, 2nd",1 µg/mL
same,MIC,"S. aureus ATCC43300 MRSA; S. aureus ATCC43300 MRSA, TSB","2, 2 μg/ml"
same,MIC,S. aureus ATCC43300 MRSA; Staphylococcus aureus,2 µg/mL
same,MIC,"S. aureus ATCC43300 MRSA; Staphylococcus aureus, ATCC 43300 / MRSA / VISA",1 µg/mL
same,MIC,S. epidermidis ATCC35983; CAMHB,4 µg/mL
same,MIC,S. epidermidis ATCC35983; TSB,4 µg/mL
same,MIC,"S. epidermidis ATCC35983; Table 6, 1st",2 µg/mL
same,MIC,"S. epidermidis ATCC35983; Table 6, 2nd",2 µg/mL
